Laboratory results published in PMC3083694, “Effects of Intermediates between Vitamins K2 and K3 on Mammalian DNA Polymerase Inhibition and Anti-Inflammatory Activity” (International Journal of Molecular Sciences, 2011).

Assays:
Human DNA polymerase γ [1] = target: T1, Human DNA polymerase γ (Homo sapiens, UniProt P54098); experiment: DNA polymerase activity assay, human pol γ; type: biochemical
T1 construct: made in house
T1 sequence (P54098 1-1239): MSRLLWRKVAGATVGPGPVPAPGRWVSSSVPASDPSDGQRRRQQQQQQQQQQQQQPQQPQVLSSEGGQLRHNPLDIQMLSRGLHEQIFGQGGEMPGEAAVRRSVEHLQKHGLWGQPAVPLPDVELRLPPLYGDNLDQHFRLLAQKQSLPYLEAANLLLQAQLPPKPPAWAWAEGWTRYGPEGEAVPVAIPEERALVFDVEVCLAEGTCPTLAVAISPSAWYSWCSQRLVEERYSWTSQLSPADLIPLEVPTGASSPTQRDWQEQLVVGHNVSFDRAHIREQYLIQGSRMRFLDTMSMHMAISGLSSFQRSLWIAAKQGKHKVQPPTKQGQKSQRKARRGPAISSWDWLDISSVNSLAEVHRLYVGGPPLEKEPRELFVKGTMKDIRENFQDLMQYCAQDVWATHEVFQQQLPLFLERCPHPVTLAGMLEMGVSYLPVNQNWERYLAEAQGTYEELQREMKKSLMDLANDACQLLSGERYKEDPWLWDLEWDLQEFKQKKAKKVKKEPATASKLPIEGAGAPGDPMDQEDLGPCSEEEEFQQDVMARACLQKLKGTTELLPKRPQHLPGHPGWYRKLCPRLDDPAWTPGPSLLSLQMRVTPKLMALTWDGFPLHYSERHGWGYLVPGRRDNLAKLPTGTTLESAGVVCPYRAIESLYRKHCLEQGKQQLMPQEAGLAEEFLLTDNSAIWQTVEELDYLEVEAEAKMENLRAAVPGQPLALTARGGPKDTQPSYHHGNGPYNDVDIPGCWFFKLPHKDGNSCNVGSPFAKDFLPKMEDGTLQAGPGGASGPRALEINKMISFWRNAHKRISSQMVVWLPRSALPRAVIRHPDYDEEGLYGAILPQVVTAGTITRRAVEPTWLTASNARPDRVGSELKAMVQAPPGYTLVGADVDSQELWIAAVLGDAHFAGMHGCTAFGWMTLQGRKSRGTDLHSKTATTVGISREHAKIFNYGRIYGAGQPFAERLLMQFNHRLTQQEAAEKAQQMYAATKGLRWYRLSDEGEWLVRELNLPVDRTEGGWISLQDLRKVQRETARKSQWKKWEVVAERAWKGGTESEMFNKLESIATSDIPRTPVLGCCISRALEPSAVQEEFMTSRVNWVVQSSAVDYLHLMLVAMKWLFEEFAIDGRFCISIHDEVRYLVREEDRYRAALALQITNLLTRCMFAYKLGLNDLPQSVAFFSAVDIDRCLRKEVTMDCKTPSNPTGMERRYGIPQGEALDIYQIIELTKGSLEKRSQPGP
Description: (§1) Pols from mammals, a fish (cherry salmon), an insect (fruit fly) and a plant (cauliflower) were purified, and prokaryotic pols and other DNA metabolic enzymes, such as T7 RNA polymerase, T4 polynucleotide kinase and bovine deoxyribonuclease I, were purchased as described in our previous report. The activities of all pols and other DNA metabolic enzymes were measured as described in previous reports.
The components of the pol assay were poly(dA)/oligo(dT)18 and dTTP as the DNA template-primer and 2′-deoxyribonucleoside 5′-triphosphate (dNTP) substrate, respectively. VK2, VK3, and their synthesized derivatives (i.e., MK-3, MK-2 and MK-1) were dissolved in dimethyl sulfoxide (DMSO) at various concentrations and sonicated for 30 s. The sonicated samples (4 μL) were mixed with 16 μL of each pol enzyme (final amount, 0.05 units) in 50 mM Tris-HCl (pH 7.5) containing 1 mM dithiothreitol, 50% glycerol and 0.1 mM EDTA, and kept at 0 °C for 10 min. These inhibitor–enzyme mixtures (8 μL) were added to 16 μL of each standard enzyme reaction mixture (50 mM Tris-HCl [pH 7.5], 1 mM dithiothreitol, 1 mM MgCl2, 15% glycerol, 10 μM poly(dA)/oligo(dT)18 and 10 μM [^3H]-dTTP), and incubation was carried out at 37 °C for 60 min, except for Taq pol, which was incubated at 74 °C for 60 min. Activity without the inhibitor was considered to be 100%, and the activity remaining at each concentration of inhibitor was determined relative to this value. One unit of pol activity was defined as the amount of enzyme that catalyzed the incorporation of 1 nmol dNTP (dTTP) into the synthetic DNA template-primer (poly(dA)/oligo(dT)18, A/T = 2/1) in 60 min at 37 °C under normal reaction conditions for each enzyme (scintillation counts: approximately 1 pmol of incorporated radioactive nucleotides = 100 cpm).

Human DNA polymerase γ [2] = target: T1, Human DNA polymerase γ; parameters: method as in PMID 18312466, PMID 18698499, PMID 20030669, PMID 20881898; settings: earlier work of the authors; cited from earlier work
T4 polynucleotide kinase = target: T2, T4 polynucleotide kinase (Enterobacteria phage T4, UniProt P06855); experiment: DNA metabolic enzyme assay, T4 polynucleotide kinase; type: biochemical; settings: other DNA metabolic enzyme; read-out: IC50 Value of MK-2, T4 polynucleotide kinase
T2 construct: purchased
Description: as §1

[3] = target: X-family pols (mammalian); experiment: DNA polymerase activity assay, mammalian X-family pols; type: biochemical, mammals; settings: range over mammalian X-family pols β, λ, TdT; read-out: 50% inhibition of the X family of pols
Description: as §1
(§2) The components of the pol assay were poly(dA)/oligo(dT)18 and dTTP as the DNA template-primer and 2′-deoxyribonucleoside 5′-triphosphate (dNTP) substrate, respectively. VK2, VK3, and their synthesized derivatives (i.e., MK-3, MK-2 and MK-1) were dissolved in dimethyl sulfoxide (DMSO) at various concentrations and sonicated for 30 s. The sonicated samples (4 μL) were mixed with 16 μL of each pol enzyme (final amount, 0.05 units) in 50 mM Tris-HCl (pH 7.5) containing 1 mM dithiothreitol, 50% glycerol and 0.1 mM EDTA, and kept at 0 °C for 10 min. […] Activity without the inhibitor was considered to be 100%, and the activity remaining at each concentration of inhibitor was determined relative to this value. […]

[4] = target: T3, Fruit fly DNA polymerase ɛ (Drosophila melanogaster, UniProt Q9VCN1); experiment: DNA polymerase activity assay, fruit fly pol ɛ; type: biochemical; settings: insect pol; read-out: IC50 Value of MK-2, Fruit fly DNA polymerase ɛ
T3 construct: made in house
Description: as §1, §2

Human DNA polymerase η = target: T4, Human DNA polymerase η (Homo sapiens, UniProt Q9Y253); experiment: DNA polymerase activity assay, human pol η; type: biochemical; settings: Y-family pol; read-out: IC50 Value of MK-2, Human DNA polymerase η
T4 construct: made in house
Description: as §1, §2

Human DNA polymerase δ = target: T5, Human DNA polymerase δ (Homo sapiens, UniProt P28340); experiment: DNA polymerase activity assay, human pol δ; type: biochemical; settings: B-family pol; read-out: IC50 Value of MK-2, Human DNA polymerase δ
T5 construct: made in house
Description: as §1, §2

[5] = target: T6, Fruit fly DNA polymerase α (Drosophila melanogaster, UniProt P26019); experiment: DNA polymerase activity assay, fruit fly pol α; type: biochemical; settings: insect pol; read-out: IC50 Value of MK-2, Fruit fly DNA polymerase α
T6 construct: made in house
Description: as §1, §2

[6] = target: Y-family pols (mammalian); experiment: DNA polymerase activity assay, mammalian Y-family pols; type: biochemical, mammals; settings: range over mammalian Y-family pols η, ι, κ; read-out: 50% inhibition of the Y family of pols
Description: as §1, §2

[7] = target: Cherry salmon DNA polymerase δ (Oncorhynchus masou, UniProt Z9UCE0HTX2); experiment: DNA polymerase activity assay, cherry salmon pol δ; type: biochemical; settings: fish pol; read-out: IC50 Value of MK-2, Cherry salmon DNA polymerase δ
Description: as §1, §2

[8] = target: Calf primase of DNA polymerase α (Bos taurus, UniProt A0A3Q1MF00); experiment: DNA metabolic enzyme assay, calf primase of pol α; type: biochemical; settings: other DNA metabolic enzyme; read-out: IC50 Value of MK-2, Calf primase of DNA polymerase α
Description: as §1

T5 sequence (P28340 whole entry): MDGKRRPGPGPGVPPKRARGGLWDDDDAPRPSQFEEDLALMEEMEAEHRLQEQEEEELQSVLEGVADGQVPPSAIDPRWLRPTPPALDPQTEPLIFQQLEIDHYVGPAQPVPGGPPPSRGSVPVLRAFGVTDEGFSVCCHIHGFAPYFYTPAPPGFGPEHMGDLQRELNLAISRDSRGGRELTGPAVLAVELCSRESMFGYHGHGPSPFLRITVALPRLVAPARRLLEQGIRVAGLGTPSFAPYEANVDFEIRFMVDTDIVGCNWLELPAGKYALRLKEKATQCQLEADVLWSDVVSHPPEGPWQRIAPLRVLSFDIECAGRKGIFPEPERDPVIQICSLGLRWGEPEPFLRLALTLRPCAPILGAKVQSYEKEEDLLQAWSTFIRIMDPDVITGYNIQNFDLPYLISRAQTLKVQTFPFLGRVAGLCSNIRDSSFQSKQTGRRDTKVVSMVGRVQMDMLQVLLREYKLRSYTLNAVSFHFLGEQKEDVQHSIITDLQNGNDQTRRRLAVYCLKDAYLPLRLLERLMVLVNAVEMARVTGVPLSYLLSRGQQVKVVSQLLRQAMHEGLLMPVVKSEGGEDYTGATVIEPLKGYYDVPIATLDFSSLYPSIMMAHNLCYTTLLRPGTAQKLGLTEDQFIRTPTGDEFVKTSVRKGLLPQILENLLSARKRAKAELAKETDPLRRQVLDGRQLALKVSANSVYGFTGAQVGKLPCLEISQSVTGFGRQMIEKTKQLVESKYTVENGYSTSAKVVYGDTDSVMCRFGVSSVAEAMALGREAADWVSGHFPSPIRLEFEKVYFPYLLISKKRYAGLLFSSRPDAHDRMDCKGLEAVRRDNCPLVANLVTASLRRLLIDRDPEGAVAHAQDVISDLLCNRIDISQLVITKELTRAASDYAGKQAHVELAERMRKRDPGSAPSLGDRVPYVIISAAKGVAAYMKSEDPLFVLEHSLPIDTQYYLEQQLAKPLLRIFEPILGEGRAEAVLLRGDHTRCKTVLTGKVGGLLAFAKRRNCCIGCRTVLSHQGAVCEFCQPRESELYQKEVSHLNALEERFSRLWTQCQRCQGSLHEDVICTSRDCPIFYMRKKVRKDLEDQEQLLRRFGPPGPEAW
T2 sequence (P06855 whole entry): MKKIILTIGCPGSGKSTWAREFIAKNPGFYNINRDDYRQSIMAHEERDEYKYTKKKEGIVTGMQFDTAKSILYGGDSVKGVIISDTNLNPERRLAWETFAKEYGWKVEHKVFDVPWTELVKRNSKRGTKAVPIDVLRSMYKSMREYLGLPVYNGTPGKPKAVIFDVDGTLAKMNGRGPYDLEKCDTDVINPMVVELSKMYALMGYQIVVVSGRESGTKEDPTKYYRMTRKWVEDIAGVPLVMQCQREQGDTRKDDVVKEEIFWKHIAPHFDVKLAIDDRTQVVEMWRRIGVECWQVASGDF
T3 sequence (Q9VCN1 whole entry): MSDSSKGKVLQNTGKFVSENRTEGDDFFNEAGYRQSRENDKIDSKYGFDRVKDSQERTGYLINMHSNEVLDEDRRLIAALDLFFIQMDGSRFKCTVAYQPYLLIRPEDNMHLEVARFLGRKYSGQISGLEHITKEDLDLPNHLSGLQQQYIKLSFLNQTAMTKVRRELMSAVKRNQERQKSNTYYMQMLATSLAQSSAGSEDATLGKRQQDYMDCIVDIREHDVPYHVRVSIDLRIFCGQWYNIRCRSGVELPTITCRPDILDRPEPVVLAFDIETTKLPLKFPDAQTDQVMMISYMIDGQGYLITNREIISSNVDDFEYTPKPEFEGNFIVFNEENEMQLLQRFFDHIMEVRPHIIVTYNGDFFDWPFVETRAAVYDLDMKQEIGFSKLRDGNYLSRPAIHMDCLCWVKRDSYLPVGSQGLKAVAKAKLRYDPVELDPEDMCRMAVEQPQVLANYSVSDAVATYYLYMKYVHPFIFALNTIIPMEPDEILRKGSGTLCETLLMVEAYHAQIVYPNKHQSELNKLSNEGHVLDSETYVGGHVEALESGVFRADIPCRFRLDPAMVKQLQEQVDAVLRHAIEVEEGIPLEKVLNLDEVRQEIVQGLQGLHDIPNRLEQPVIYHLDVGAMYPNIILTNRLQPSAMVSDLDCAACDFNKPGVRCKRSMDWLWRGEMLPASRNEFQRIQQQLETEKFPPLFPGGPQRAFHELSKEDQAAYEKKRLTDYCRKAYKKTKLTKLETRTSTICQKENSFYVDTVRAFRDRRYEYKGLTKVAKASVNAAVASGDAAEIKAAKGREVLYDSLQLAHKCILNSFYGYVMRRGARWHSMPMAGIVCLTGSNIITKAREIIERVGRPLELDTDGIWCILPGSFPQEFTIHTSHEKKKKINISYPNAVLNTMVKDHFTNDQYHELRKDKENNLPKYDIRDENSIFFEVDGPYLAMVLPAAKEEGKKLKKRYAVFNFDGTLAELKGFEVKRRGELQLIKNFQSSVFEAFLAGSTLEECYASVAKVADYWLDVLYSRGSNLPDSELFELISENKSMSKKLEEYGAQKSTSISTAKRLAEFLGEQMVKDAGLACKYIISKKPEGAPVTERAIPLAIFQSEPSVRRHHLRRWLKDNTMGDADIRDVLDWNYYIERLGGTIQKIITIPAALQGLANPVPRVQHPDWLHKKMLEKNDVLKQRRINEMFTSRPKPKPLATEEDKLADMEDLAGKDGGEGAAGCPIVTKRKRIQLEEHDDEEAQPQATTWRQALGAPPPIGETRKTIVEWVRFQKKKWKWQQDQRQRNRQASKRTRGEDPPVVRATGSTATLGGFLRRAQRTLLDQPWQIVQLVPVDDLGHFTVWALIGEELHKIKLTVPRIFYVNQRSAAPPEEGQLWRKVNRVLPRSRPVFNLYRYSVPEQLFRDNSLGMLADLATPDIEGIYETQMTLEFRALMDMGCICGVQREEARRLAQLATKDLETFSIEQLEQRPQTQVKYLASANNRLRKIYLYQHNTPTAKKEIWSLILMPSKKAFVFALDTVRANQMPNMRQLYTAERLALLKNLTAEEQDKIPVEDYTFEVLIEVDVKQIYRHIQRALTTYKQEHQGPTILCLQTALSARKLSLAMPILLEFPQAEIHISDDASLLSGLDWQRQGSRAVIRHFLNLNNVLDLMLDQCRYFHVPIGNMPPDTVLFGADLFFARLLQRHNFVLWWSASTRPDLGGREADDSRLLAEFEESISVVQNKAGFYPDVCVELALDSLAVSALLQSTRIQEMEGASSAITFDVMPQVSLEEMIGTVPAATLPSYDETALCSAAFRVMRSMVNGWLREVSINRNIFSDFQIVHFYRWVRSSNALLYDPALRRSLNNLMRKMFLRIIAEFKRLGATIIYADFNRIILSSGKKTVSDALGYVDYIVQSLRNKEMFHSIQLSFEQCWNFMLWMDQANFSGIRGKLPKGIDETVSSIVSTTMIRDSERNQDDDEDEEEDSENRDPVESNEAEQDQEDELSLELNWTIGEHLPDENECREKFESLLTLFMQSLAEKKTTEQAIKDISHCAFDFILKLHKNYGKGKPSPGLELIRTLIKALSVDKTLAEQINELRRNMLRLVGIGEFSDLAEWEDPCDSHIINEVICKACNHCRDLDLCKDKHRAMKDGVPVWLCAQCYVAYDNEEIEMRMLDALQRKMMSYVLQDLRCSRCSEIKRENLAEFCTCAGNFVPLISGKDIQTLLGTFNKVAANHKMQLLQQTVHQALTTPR
Sequence of Cherry salmon DNA polymerase δ (Z9UCE0HTX2 1-856): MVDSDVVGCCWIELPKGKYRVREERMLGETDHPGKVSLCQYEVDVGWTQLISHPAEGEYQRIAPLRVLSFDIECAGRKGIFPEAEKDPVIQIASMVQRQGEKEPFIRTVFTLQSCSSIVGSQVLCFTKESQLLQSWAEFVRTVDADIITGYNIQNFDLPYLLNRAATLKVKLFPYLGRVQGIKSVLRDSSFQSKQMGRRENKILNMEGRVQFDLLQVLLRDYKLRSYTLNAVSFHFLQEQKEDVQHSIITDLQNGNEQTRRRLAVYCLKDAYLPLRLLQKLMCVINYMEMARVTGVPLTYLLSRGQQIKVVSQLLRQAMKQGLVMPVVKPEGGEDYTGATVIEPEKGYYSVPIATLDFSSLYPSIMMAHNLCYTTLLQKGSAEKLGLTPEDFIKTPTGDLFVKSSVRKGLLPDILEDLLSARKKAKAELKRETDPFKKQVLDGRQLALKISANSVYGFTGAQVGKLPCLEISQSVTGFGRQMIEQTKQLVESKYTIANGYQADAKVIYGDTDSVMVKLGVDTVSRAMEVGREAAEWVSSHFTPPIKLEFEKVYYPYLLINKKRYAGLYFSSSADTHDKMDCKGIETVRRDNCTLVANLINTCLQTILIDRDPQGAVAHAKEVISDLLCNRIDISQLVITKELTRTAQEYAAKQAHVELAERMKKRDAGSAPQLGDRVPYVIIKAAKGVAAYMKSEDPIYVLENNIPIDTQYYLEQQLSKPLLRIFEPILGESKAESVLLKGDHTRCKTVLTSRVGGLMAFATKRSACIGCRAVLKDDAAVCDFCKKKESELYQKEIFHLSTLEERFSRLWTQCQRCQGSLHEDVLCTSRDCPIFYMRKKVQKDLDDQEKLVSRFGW

For `CC(C)=CCC/C(C)=C/CC/C(C)=C/CC/C(C)=C/CC1=C(C)C(=O)c2ccccc2C1=O` [MK-4, menaquinone 4, reference compound], the “Inhibitory effect on human pol γ activity” value (Human DNA polymerase γ [1]; 50 μM of each compound, Figure 2) is given as “had no effect on pol activity” and the “Inhibitor of human pol γ” value (Human DNA polymerase γ [2]) is given as “not”.

With `CC(C)=CCC/C(C)=C/CC1=C(C)C(=O)c2ccccc2C1=O` [MK-2] the IC50 (T4 polynucleotide kinase) was > 200 µM, the IC50 [3] was 24.6 to 31 µM and the IC50 [4] was 36.7 ± 2.1 µM. For the same molecule, the IC50 (Human DNA polymerase γ [1]; A-family pol, poly(dA)/oligo(dT)18 and dTTP, read-out: IC50 Value of MK-2, Human DNA polymerase γ) was 68.8 ± 3.4 µM, the IC50 (Human DNA polymerase η) was 37.8 ± 2.2 µM and the IC50 (Human DNA polymerase δ) was 29.1 ± 1.8 µM. The IC50 [5] was 34 ± 2 µM, the IC50 [6] was 35.3 to 39 µM and the IC50 [7] was 32.5 ± 1.9 µM. The IC50 [8] was > 200 µM.
